Here are results for eight compounds from ChEMBL document CHEMBL1149896, “Abietane diterpenoids from Clerodendrum bungei” (J Nat Prod, 2008).

For one assay, the system named is HGC-27. The assay is described as follows: Cytotoxicity against human HGC27 cells after 48 hrs by MTT assay. In kind it is functional, cell-based. The following applies: HGC-27, 48 h. (In general: Formazan colour is commonly taken as a measure of viable cells.)
In the next assay the test system is B16. Kind of assay: Cytotoxicity against mouse B16 cells after 48 hrs by MTT assay. Format: functional, cell-based. As to conditions: B16, 48 h.
In assay [1] the test system is HEK293. Kind of assay: Cytotoxicity against HEK293 cells after 48 hrs by MTT assay. As to conditions: Homo sapiens, HEK293, 48 h. Format: cell-based.
In assay [2] the test system is HEK293. Kind of assay: Cell cycle arrest in HEK293 cells assessed as accumulation at G2/M phase at 5 nM after 24 hrs by flow cytometry. Format: functional, Homo sapiens.
Assay [3] has as its system HEK293. The assay is described as follows: Cell cycle arrest in HEK293 cells assessed as accumulation at G2/M phase at 0.5 uM after 24 hrs by flow cytometry. Format: functional, Homo sapiens. In general terms: A flow cytometer gives signals particle by particle.
The test system of assay [4] is HEK293. The assay is described as follows: Cell cycle arrest in HEK293 cells assessed as accumulation at G2/M phase at 2.5 uM after 24 hrs by flow cytometry. Format: functional, Homo sapiens.
In assay [5] the test system is HEK293. The assay is described as follows: Cell cycle arrest in HEK293 cells assessed as accumulation at S phase at 10 uM after 24 hrs by flow cytometry. Format: functional, Homo sapiens.
For assay [6], the system named is HEK293. Kind of assay: Cell cycle arrest in HEK293 cells assessed as accumulation at S phase at 2.5 uM after 24 hrs by flow cytometry. Format: functional, Homo sapiens.
The test system of assay [7] is HEK293. The assay is described as follows: Cell cycle arrest in HEK293 cells assessed as accumulation at G1 phase at 5 nM after 24 hrs by flow cytometry. In kind it is functional, Homo sapiens.
Assay [8] concerns HEK293. The assay is described as follows: Cell cycle arrest in HEK293 cells assessed as accumulation at G2/M phase at 10 uM after 24 hrs by flow cytometry. In kind it is functional, Homo sapiens.
In assay [9] the test system is HEK293. Kind of assay: Cell cycle arrest in HEK293 cells assessed as accumulation at G1 phase at 10 uM after 24 hrs by flow cytometry. In kind it is functional, Homo sapiens.
The subject of assay [10] is HEK293. Kind of assay: Cell cycle arrest in HEK293 cells assessed as accumulation at S phase at 0.5 uM after 24 hrs by flow cytometry. In kind it is functional, Homo sapiens.
In assay [11] the test system is HEK293. The assay is described as follows: Cell cycle arrest in HEK293 cells assessed as accumulation at S phase at 5 nM after 24 hrs by flow cytometry. Format: functional, Homo sapiens.
Assay [12] has as its system HEK293. The assay is described as follows: Cell cycle arrest in HEK293 cells assessed as accumulation at S phase at 5 uM after 24 hrs by flow cytometry. In kind it is functional, Homo sapiens.
Assay [13] has as its system HEK293. The assay is described as follows: Cell cycle arrest in HEK293 cells assessed as accumulation at G1 phase at 5 uM after 24 hrs by flow cytometry. Format: functional, Homo sapiens.
The test system of assay [14] is HEK293. Kind of assay: Cell cycle arrest in HEK293 cells assessed as accumulation at G2/M phase at 5 uM after 24 hrs by flow cytometry. In kind it is functional, Homo sapiens.
The subject of assay [15] is HEK293. The assay is described as follows: Cell cycle arrest in HEK293 cells assessed as accumulation at G1 phase at 0.5 […] after 24 hrs by flow cytometry. In kind it is functional, Homo sapiens.
Assay [16] deals with HEK293. The assay is described as follows: Cell cycle arrest in HEK293 cells assessed as accumulation at G1 phase at 2.5 uM after 24 hrs by flow cytometry. In kind it is functional, Homo sapiens.

pIC50: −log10 of the molar value.

Take `C[C@H](CO)c1cc2c(c(O)c1O[C@@H]1O[C@H](CO)[C@@H](O)[C@H](O)[C@H]1O)[C@@]1(C)CCC[C@](C)(CO[C@@H]3O[C@H](CO)[C@@H](O)[C@H](O)[C@H]3O)[C@@H]1CC2`: the pIC50 in the assay on HGC-27, in the assay on B16 and in the assay on HEK293 [1] was below 5.00 in each case.

In the case of `C[C@H](CO)c1cc2c(c(O)c1O[C@@H]1O[C@H](CO)[C@@H](O)[C@H](O)[C@H]1O)[C@@]1(C)CCC[C@](C)(C(=O)O[C@@H]3O[C@H](CO)[C@@H](O)[C@H](O)[C@H]3O)[C@@H]1CC2`, the pIC50 with HGC-27, in the assay on B16 and in the assay on HEK293 [1] was below 5.00 throughout.

Turning to `CC1=C(CO)C2=CC(=O)c3c(c(O)c4oc(C)cc4c3O)[C@@]2(C)CC1=O`, the pIC50 with HGC-27, in the assay with B16 and in the assay on HEK293 [1] was below 5.00 in each case.

On to `C[C@H](CO)c1cc2c(c(O)c1O[C@@H]1O[C@H](CO)[C@@H](O)[C@H](O)[C@H]1O)[C@@]1(C)CC[C@H](O[C@@H]3O[C@H](CO)[C@@H](O)[C@H](O)[C@H]3O)C(C)(C)[C@@H]1CC2`, for which the pIC50 in the assay on HGC-27, with B16 and with HEK293 [1] was below 5.00 each time.

`C[C@H](CO)c1cc2c(c(O)c1O[C@@H]1O[C@H](CO)[C@@H](O)[C@H](O)[C@H]1O)[C@@]1(C)CC[C@H](O)C(C)(C)[C@@H]1CC2`: the pIC50 with HGC-27, in the assay on B16 and in the assay with HEK293 [1] was below 5.00 throughout.

Take `CC1=C(C(=O)O)[C@@H]2CC(=O)c3cc(CC(C)O)c(O[C@@H]4O[C@H](CO)[C@@H](O)[C@H](O)[C@H]4O)c(O)c3[C@@]2(C)CC1` (some centres undefined): the pIC50 in the assay with HGC-27, in the assay on B16 and with HEK293 [1] was below 5.00 in each case.

As for `CC1=C(C)C2=CC(=O)c3c(O)c4c(c(O)c3[C@@]2(C)CC1)OC(C)C4` (some centres undefined), the Activity was found to be 16.14% in the assay with HEK293 [2]; 23.57% in the assay with HEK293 [3]; 16.12% with HEK293 [4]; 42.62% in the assay with HEK293 [5]; 40.45% in the assay on HEK293 [6]; 50.14% in the assay on HEK293 [7]. The Activity with HEK293 [8] is 34.88%; in the assay with HEK293 [9], 22.5%; in the assay with HEK293 [10], 31.01%; in the assay with HEK293 [11], 33.72%; with HEK293 [12] it was 46.58%; with HEK293 [13], 29.5%. Further, the Activity came to 23.92% in the assay with HEK293 [14], 45.43% with HEK293 [15] and 43.44% in the assay with HEK293 [16]. In addition, the pIC50 – broadly, the negative decadic logarithm of the IC50, by convention in mol/L – in the assay with HGC-27 was 5.28; in the assay on B16 it was 5.19; in the assay with HEK293 [1] it was 5.92.

For `CC1=C(C)C2=CC(=O)c3c(c(O)c4oc(C)cc4c3O)[C@@]2(C)CC1=O`, the negative logarithm of the IC50 (pIC50) with HGC-27, with B16 and in the assay on HEK293 [1] was below 5.00 throughout.
